The values below come from patent US11897850B1, “N′-(2-(5-(4-chlorophenyl)-1,3,4-oxadiazol-2-ylthio)acetoxy)-4-methoxybenzimidamide as an antimicrobial compound” (KING FAISAL UNIVERSITY, priority 2023, dated 2024).

Holding throughout (assay type): cell-based
Assay [1] has as its system Aspergillus flavus. Briefly: Agar plate disc-diffusion, antifungal activity by inhibition zone. As to conditions: Sabouraud's dextrose agar, 72 h. On the procedure:
(§1) The agar plate disc-diffusion method was applied. […] The discs were then placed onto the surface of agar plates (nutrient agar for bacteria and Sabouraud's dextrose agar for fungi) seeded with the test organism. Each plate contained 15 mL of the agar medium, previously seeded with 0.2 mL of the broth culture of each organism pregrown for 18 h. The plates were incubated at 37° C. for 48 h, and 72 h for fungi. The inhibition zones was measured in mm. Discs impregnated with DMSO were used as a control, and its inhibition zone was subtracted from the tested compound actual inhibition zone.
(§2) The results of the antimicrobial testing can be observed in Tables 1 and 2, below, using ciprofloxacin as a reference.
In general terms: Agar diffusion results depend on both activity and mobility in agar.

In assay [2] the test system is Bacillus cereus. The experiment in a line: Agar plate disc-diffusion, antibacterial activity by inhibition zone. As to conditions: nutrient agar, 37° C., 48 h. On the procedure:
as §1, §2

Assay [3] has as its system Staphylococcus aureus. The description is as above. As to conditions: nutrient agar, 37° C., 48 h. On the procedure:
as §1, §2

For assay [4], the system named is Escherichia coli. Described as above. The conditions noted are these: nutrient agar, 37° C., 48 h. The protocol:
as §1, §2

The subject of assay [5] is Pseudomonas aeruginosa. Described as above. As to conditions: nutrient agar, 37° C., 48 h. On the procedure: as §1, §2
In assay [6] the test system is Chrysosporium keratinophilum. The experiment in a line: Agar plate disc-diffusion, antifungal activity by inhibition zone. As to conditions: Sabouraud's dextrose agar, 72 h. The protocol:
The agar plate disc-diffusion method was applied. Sterilized filter papers (6 mm in diameter) were wetted with 10 μL of a solution N′-(2-(5-(4-chlorophenyl)-1,3,4-oxadiazol-2-ylthio)acetoxy)-4-methoxybenzimidamide (3) to be tested, containing 10 mg/mL in DMSO, and the discs were allowed to air dry. The discs were then placed onto the surface of agar plates (nutrient agar for bacteria and Sabouraud's dextrose agar for fungi) seeded with the test organism. Each plate contained 15 mL of the agar medium, previously seeded with 0.2 mL of the broth culture of each organism pregrown for 18 h. The plates were incubated at 37° C. for 48 h, and 72 h for fungi. The inhibition zones was measured in mm. Discs impregnated with DMSO were used as a control, and its inhibition zone was subtracted from the tested compound actual inhibition zone.
as §2

[7] abbreviates: A = concentration of comp. = 10,000 μL.
The mark [8] stands for this setting: B = concentration of comp. = 30,000 μL.
[9] abbreviates: C = concentration of comp. = 50,000 μL.

In the case of `O=C(O)c1cn(C2CC2)c2cc(N3CCNCC3)c(F)cc2c1=O` [Cip., ciprofloxacin], the inhibition zone in assay [1] (setting [7]) is on record as 29 mm; in assay [1] (setting [8]), 30 mm; in assay [1] (setting [9]), 42 mm; in assay [2] (setting [7]) it was 29 mm; in assay [2] (setting [8]), 30 mm; in assay [2] (setting [9]), 42 mm. Further, the inhibition zone in assay [3] (setting [7]) is reported as 43 mm; in assay [3] (setting [8]), 44 mm; in assay [3] (setting [9]), 53 mm; in assay [4] (setting [7]), 30 mm; in assay [4] (setting [8]), 39 mm; in assay [4] (setting [9]) it was 60 mm. Moreover, the inhibition zone in assay [5] (setting [7]) was 29 mm; in assay [5] (setting [8]), 30 mm; in assay [5] (setting [9]) it was 53 mm; in assay [6] (setting [7]) it was 29 mm; in assay [6] (setting [8]) it was 30 mm; in assay [6] (setting [9]) it was 53 mm.

On to `COc1ccc(/C(N)=N/OC(=O)CSc2nnc(-c3ccc(Cl)cc3)o2)cc1` [Compound 3, N′-(2-(5-(4-chlorophenyl)-1,3,4-oxadiazol-2-ylthio)acetoxy)-4-methoxybenzimidamide], for which the inhibition zone in assay [1] (setting [7]) amounted to 21 mm; in assay [1] (setting [8]), 22 mm; in assay [1] (setting [9]), 35 mm; in assay [2] (setting [7]), 28 mm; in assay [2] (setting [8]), 31 mm; in assay [2] (setting [9]) it was 39 mm. For the same molecule, the inhibition zone in assay [3] (setting [7]) came to 20 mm; in assay [3] (setting [8]) it was 24 mm; in assay [3] (setting [9]) it was 36 mm; in assay [4] (setting [7]), 29 mm; in assay [4] (setting [8]), 38 mm; in assay [4] (setting [9]), 47 mm. The inhibition zone in assay [5] (setting [7]) is 24 mm; in assay [5] (setting [8]) it was 28 mm; in assay [5] (setting [9]), 40 mm; in assay [6] (setting [7]) it was 24 mm; in assay [6] (setting [8]), 28 mm; in assay [6] (setting [9]), 41 mm.
